Among the data in ChEMBL document CHEMBL5252655, “Discovery of Potent Deuterated Compounds as Potential KRASG12D Inhibitors in Cancer Therapy” (ACS Med Chem Lett, 2023) are IC50 values, retold here.

The IC50 is the concentration that gives 50% inhibition. High values mean weaker potency, low ones greater potency.

A value given as a limit tells only on which side of the number the result lay.

The target of this assay is SOS1-KRAS (Homo sapiens, UniProt P01116, G12D). Description: Inhibition of SOS1/KRAS G12D mutant (unknown origin) protein-protein interaction incubated for 3 hrs by HTRF analysis. (TR-FRET usually uses a lanthanide donor and a delayed reading to cut background.)
SOS1-KRAS, sequence (P01116 whole entry G12D, looked up): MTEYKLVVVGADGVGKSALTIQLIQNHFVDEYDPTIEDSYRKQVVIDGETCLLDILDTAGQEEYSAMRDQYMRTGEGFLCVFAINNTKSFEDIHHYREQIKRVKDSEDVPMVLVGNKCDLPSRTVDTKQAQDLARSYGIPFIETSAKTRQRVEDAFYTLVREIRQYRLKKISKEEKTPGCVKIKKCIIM
Turning to `[2H]C([2H])(Oc1nc(N2CC3CCC2CN3)c2cnc(-c3cc(O)cc(Cl)c3C(F)(F)F)c(F)c2n1)C12CCCN1CCC2` (centres undefined), the IC50 is no more than 0.05 µM. As to `[2H]C([2H])(Oc1nc2c(c(N3CC4CCC(C3)N4)n1)CCN(c1cc(O)ccc1C(F)(F)F)C2)C12CCCN1CCC2`, the IC50 was greater than 0.25 µM. As to `[2H]C([2H])(Oc1nc2c(c(N3CC4CCC(C3)N4)n1)CCN(c1cc(O)cc(Cl)c1C(F)(F)F)C2)C12CCCN1CCC2`, the IC50 was greater than 0.05 µM. The compound `[2H]C([2H])(Oc1nc(N2CC3CCC(C2)N3)c2cnc(-c3cc(O)cc(Cl)c3C(F)(F)F)c(F)c2n1)C12CCCN1CCC2` gave an IC50 of no more than 0.05 µM.
